Patent US7592308B2, “F3W variants of the lantibiotic mersacidin and its use” (priority 2004, dated 2009)
In brackets after ≈: the same amount, converted by molar mass. Entries after “also recorded” stand apart in the source; their conditions may differ. Like-named read-outs stand apart in the source and are kept apart here. Square brackets hold non-standard residues; d marks the D form. Ends that are not written are not given here. Dhb = C/C=C(\N)C(=O)O; Dha = C=C(N)C(=O)O

Columns and labels:
M. luteus 4698 = type: cell-based, Micrococcus luteus
Description: (§1) A selection of the variants produced in Example 1 above were tested further for activity against a range of bacteria. Minimum inhibitory concentrations (MICs) for all organisms with the exception of Streptococcus pneumoniae were determined by two-fold serial antibiotic dilutions in Mueller-Hinton broth (MHB) supplemented with 50 μg/ml calcium as calcium chloride dihydrate. Minimum inhibitory concentrations (MICs) for S. pneumoniae were determined by two-fold serial antibiotic dilutions in Brain Heart Infusion (BHI) broth supplemented with 50 μg/ml calcium as calcium chloride dihydrate. Antimicrobial agent stock solutions were prepared and stored according to NCCLS standard M7-A6.
(§2) Actively growing broth cultures were diluted to contain […] by adjusting to an absorbance of 0.2-0.3 at 600 nm, equivalent to the McFarland 0.5 standard. They were then diluted a further 1:100 in broth. The assays were performed in duplicate in sterile 96-well microtitre plates in a total volume of 200 μl (160 μl broth, 20 μl antibiotic, 20 μl inoculum) in a concentration range from 64 μg/ml to 0.06 μg/ml. The 12th well of the microtitre plate contained no antimicrobial agent. Vancomycin was used as a reference antibiotic for quality control. Plates were incubated aerobically, shaking, for 18-20 hours at 37° C. with the MIC defined as the lowest concentration of drug that produced no visible growth.

S. pyogenes 13608 = type: cell-based, Streptococcus pyogenes
Description: (§3) MIC tests were performed with some of the variants of Example 2 on a range of other organisms. The results are shown in Tables 9 and 10 (figures in μg/ml): […]

S. pyogenes 16205 = type: cell-based, Streptococcus pyogenes
Description: as §3

S. aureus 1012-13 MRSA = type: cell-based, Staphylococcus aureus
Description: as §3

S. aureus COL MRSA = type: cell-based, Staphylococcus aureus
Description: as §3

S. aureus CS = type: cell-based, Staphylococcus aureus
Description: as §3

S. aureus SG511 = type: cell-based, Staphylococcus aureus
Description: as §3

E. faecium 4147 VRE = type: cell-based, Enterococcus faecium
Description: as §3

E. faecium 4147-1 = type: cell-based, Enterococcus faecium
Description: as §3

E. faecium 19579 = experiment: MIC, two-fold serial dilution in broth; type: cell-based, Enterococcus faecium; conditions: duplicate
Description: as §1, §2

E. faecium 7131121 = experiment: MIC, two-fold serial dilution in broth; type: cell-based, Enterococcus faecium; conditions: duplicate
Description: as §1, §2

E. faecalis 29212 = experiment: MIC, two-fold serial dilution in broth; type: cell-based, Enterococcus faecalis; conditions: duplicate
Description: as §1, §2

S. aureus SH1000 = type: cell-based, Staphylococcus aureus
Description: as §1, §2

S. pneumoniae R6 = type: cell-based, Streptococcus pneumoniae; conditions: Table 8B; BHI broth + 50 μg/ml calcium; duplicate
Description: as §1, §2

S. aureus R33 = type: cell-based, Staphylococcus aureus; conditions: Table 8A; MHB + 50 μg/ml calcium; duplicate
Description: as §1, §2

M. luteus = conditions: data of Szekat et al., cited from earlier work; for fold greater MIC measured against M. luteus: compared with mersacidin
S. aureus COL = type: cell-based, Staphylococcus aureus; conditions: Table 10; duplicate
Description: as §3

S. aureus LT 1012-13 = experiment: MIC test, further organisms; type: cell-based, Staphylococcus aureus; conditions: Table 10; duplicate
Description: as §3

S. aureus Mu50 = experiment: MIC test, further organisms; type: cell-based, Staphylococcus aureus; conditions: Table 10; duplicate
Description: as §3

E. faecium BM4147 = experiment: MIC test, further organisms; type: cell-based, Enterococcus faecium; conditions: Table 10; duplicate
Description: as §3

[1] = Table 8A, MHB + 50 μg/ml calcium
[2] = Table 8A, MHB + 50 μg/ml calcium, duplicate
[3] = Table 8B, MHB + 50 μg/ml calcium, duplicate

CC[C@H](C)[C@@H]1NC(=O)[C@@H]2CSC(C)C(NC(=O)[C@@H]3CSC(C)C(NC(=O)[C@H](Cc4ccccc4)NC(=O)C4NC(=O)[C@@H](N)CSC4C)C(=O)N[C@@H](CC(C)C)C(=O)N4CCC[C@H]4C(=O)NCC(=O)NCC(=O)NCC(=O)NCC(=O)N[C@@H](C(C)C)C(=O)N3)C(=O)N[C@@H](CC(C)C)C(=O)NC(C(=O)N[C@@H](Cc3c[nH]cn3)C(=O)N[C@@H](CCC(=O)O)C(=O)N2)C(C)SC=CNC1=O (some centres unmarked) [Dha16H]
MIC M. luteus 4698 (M. luteus 4698; 4698): 4 µg/mL (≈ 2.11 µM) | MIC S. pyogenes 13608 (S. pyogenes 13608): 4 mg/L (≈ 2.11 µM) | MIC S. pyogenes 16205 (S. pyogenes 16205): 4 mg/L (≈ 2.11 µM) | MIC S. aureus 1012-13 MRSA (S. aureus 1012-13 MRSA): 64 mg/L (≈ 33.8 µM) | MIC S. aureus COL MRSA (S. aureus COL MRSA): 64 mg/L (≈ 33.8 µM) | MIC S. aureus CS (S. aureus CS): 64 mg/L (≈ 33.8 µM) | MIC S. aureus SG511 (S. aureus SG511): 8 mg/L (≈ 4.22 µM) | MIC E. faecium 4147 VRE (E. faecium 4147 VRE; 4147 VRE): 128 µg/mL (≈ 67.6 µM) | MIC E. faecium 4147-1 (E. faecium 4147-1; Table 9, 16 h): 128-16 h, μg/ml | MIC E. faecium 4147-1 (E. faecium 4147-1; Table 9, 23 h): 256-23 h μg/ml

C=C1NC(=O)C2NC(=O)[C@H](CC(C)C)NC(=O)C(NC(=O)[C@@H]3CSC(C)C(NC(=O)[C@H](Cc4ccccc4)NC(=O)C4NC(=O)[C@@H](N)CSC4C)C(=O)N[C@@H](CC(C)C)C(=O)N4CCC[C@H]4C(=O)NCC(=O)N[C@@H](Cc4c[nH]cn4)C(=O)NCC(=O)NCC(=O)N[C@@H](C(C)C)C(=O)N3)C(C)SC[C@H](NC(=O)[C@H](CCC(=O)O)NC1=O)C(=O)N[C@@H]([C@@H](C)CC)C(=O)NC=CSC2C (some centres unmarked) [G8H]
MIC E. faecium 19579 (E. faecium 19579; Table 11): >64, >64 μg/ml | MIC E. faecium 7131121 (E. faecium 7131121; Table 11): >64, >64 μg/ml | MIC E. faecalis 29212 (E. faecalis 29212; Table 11): >64, >64 μg/ml | MIC S. aureus SH1000 (S. aureus SH1000; SH1000): 64, >64 μg/ml

C=C1NC(=O)C2NC(=O)[C@H](CC(C)C)NC(=O)C(NC(=O)[C@@H]3CSC(C)C(NC(=O)[C@H](Cc4ccccc4)NC(=O)C4NC(=O)[C@@H](N)CSC4C)C(=O)N[C@@H](CC(C)C)C(=O)N4CCC[C@H]4C(=O)NCC(=O)NCC(=O)N[C@@H](CC(N)=O)C(=O)NCC(=O)N[C@@H](C(C)C)C(=O)N3)C(C)SC[C@H](NC(=O)[C@H](CCC(=O)O)NC1=O)C(=O)N[C@@H]([C@@H](C)CC)C(=O)NC=CSC2C (some centres unmarked) [G9N]
MIC E. faecium 19579 (E. faecium 19579; [1]): >64, >64 μg/ml | MIC E. faecium 7131121 (E. faecium 7131121; [1]): >64, >64 μg/ml | MIC E. faecalis 29212 (E. faecalis 29212; [1]): >64, >64 μg/ml | MIC S. aureus SH1000 (S. aureus SH1000; [2]): >64, >64 μg/ml | MIC S. pneumoniae R6 (S. pneumoniae R6): >64, >64 μg/ml

C=C1NC(=O)C2NC(=O)[C@H](CC(C)C)NC(=O)C(NC(=O)[C@@H]3CSC(C)C(NC(=O)[C@H](Cc4ccccc4)NC(=O)C4NC(=O)[C@@H](N)CSC4C)C(=O)N[C@@H](CC(C)C)C(=O)N4CCC[C@H]4C(=O)NCC(=O)NCC(=O)NCC(=O)N[C@@H](C)C(=O)N[C@@H](C(C)C)C(=O)N3)C(C)SC[C@H](NC(=O)[C@H](CCC(=O)O)NC1=O)C(=O)N[C@@H]([C@@H](C)CC)C(=O)NC=CSC2C (some centres unmarked) [G10A]
MIC E. faecium 19579 (E. faecium 19579; [1]): >64, >64 μg/ml | MIC E. faecium 7131121 (E. faecium 7131121; [1]): >64, >64 μg/ml | MIC E. faecalis 29212 (E. faecalis 29212; [1]): >64, >64 μg/ml | MIC S. aureus R33 (S. aureus R33): >64, >64 μg/ml | MIC S. aureus SH1000 (S. aureus SH1000; [2]): >64, >64 μg/ml

C=C1NC(=O)C2NC(=O)[C@H](CC(C)C)NC(=O)C(NC(=O)[C@@H]3CSC(C)C(NC(=O)[C@H](Cc4ccccc4)NC(=O)C4NC(=O)[C@@H](N)CSC4C)C(=O)N[C@@H](CC(C)C)C(=O)N[C@@H](C)C(=O)NCC(=O)NCC(=O)NCC(=O)NCC(=O)N[C@@H](C(C)C)C(=O)N3)C(C)SC[C@H](NC(=O)[C@H](CCC(=O)O)NC1=O)C(=O)N[C@@H]([C@@H](C)CC)C(=O)NC=CSC2C (some centres unmarked) [P6A]
MIC M. luteus 4698 (M. luteus 4698; 4698): 4 µg/mL (≈ 2.22 µM) | MIC S. pyogenes 13608 (S. pyogenes 13608): 4 mg/L (≈ 2.22 µM) | MIC S. pyogenes 16205 (S. pyogenes 16205): 8 mg/L (≈ 4.44 µM) | MIC S. aureus 1012-13 MRSA (S. aureus 1012-13 MRSA): 32 mg/L (≈ 17.8 µM) | MIC S. aureus COL MRSA (S. aureus COL MRSA): 64 mg/L (≈ 35.6 µM) | MIC S. aureus CS (S. aureus CS): 32 mg/L (≈ 17.8 µM) | MIC S. aureus SG511 (S. aureus SG511): 8 mg/L (≈ 4.44 µM) | MIC E. faecium 4147 VRE (E. faecium 4147 VRE; Table 9, 16 h): 128-16 h, μg/ml | MIC E. faecium 4147 VRE (E. faecium 4147 VRE; Table 9, 24 h): 256-24 h μg/ml | MIC E. faecium 4147-1 (E. faecium 4147-1; 4147-1): 256 µg/mL (≈ 142 µM)

F3L: mersacidin variant produced by Szekat et al. (CTLTLPGGGGVCTLT[Dha]ECIC; thioether (positions not given here); not fully specified; UniProt P43683 49-68, looked up, variant F3L)
MIC against M. luteus (M. luteus): 12.5 mg/L | antibacterial activity (in words) (M. luteus): weakly active

G7A: mersacidin variant (CTFTLPAGGGVCTLT[Dha]ECIC; thioether (positions not given here); not fully specified; UniProt P43683 49-68, looked up, variant G7A)
MIC E. faecium 7131121 (E. faecium 7131121; [1]): >64, >64 μg/ml | MIC E. faecalis 29212 (E. faecalis 29212; [1]): >64, >64 μg/ml | MIC S. aureus SH1000 (S. aureus SH1000; [2]): >64, >64 μg/ml | MIC S. pneumoniae R6 (S. pneumoniae R6): >64, >64 μg/ml

G7N: mersacidin variant (CTFTLPNGGGVCTLT[Dha]ECIC; thioether (positions not given here); not fully specified; UniProt P43683 49-68, looked up, variant G7N)
MIC E. faecalis 29212 (E. faecalis 29212; [1]): >64, >64 μg/ml | MIC M. luteus 4698 (M. luteus 4698; [3]): <4, <4 μg/ml

G8Q: mersacidin variant (CTFTLPGQGGVCTLT[Dha]ECIC; thioether (positions not given here); not fully specified; UniProt P43683 49-68, looked up, variant G8Q)
MIC E. faecium 19579 (E. faecium 19579; [1]): >64, >64 μg/ml | MIC E. faecium 7131121 (E. faecium 7131121; [1]): >64, >64 μg/ml | MIC E. faecalis 29212 (E. faecalis 29212; [1]): >64, >64 μg/ml | MIC S. aureus SH1000 (S. aureus SH1000; [2]): >64, >64 μg/ml

G10Y: mersacidin variant (CTFTLPGGGYVCTLT[Dha]ECIC; thioether (positions not given here); not fully specified; UniProt P43683 49-68, looked up, variant G10Y)
MIC S. aureus SH1000 (S. aureus SH1000; [2]): >64, >64 μg/ml | MIC M. luteus 4698 (M. luteus 4698; [3]): <4, <4 μg/ml | MIC S. pneumoniae R6 (S. pneumoniae R6): <4, <4 μg/ml

P6N: mersacidin variant (CTFTLNGGGGVCTLT[Dha]ECIC; thioether (positions not given here); not fully specified; UniProt P43683 49-68, looked up, variant P6N)
MIC S. aureus COL (S. aureus COL): >32, >32 μg/ml | MIC S. aureus LT 1012-13 (S. aureus LT 1012-13): >32, >32 μg/ml | MIC S. aureus Mu50 (S. aureus Mu50): >32, >32 μg/ml | MIC E. faecium BM4147 (E. faecium BM4147): >32, >32 μg/ml

S16I: mersacidin variant produced by Szekat et al. (CTFTLPGGGGVCTLTIECIC; thioether (positions not given here); not fully specified; UniProt P43683 49-68, looked up, variant S16I)
antibacterial activity (in words) (M. luteus): essentially inactive | fold greater MIC measured against M. luteus (M. luteus): about 1,000 fold

mersacidin E17A (CTFTLPGGGGVCTLT[Dha]ACIC; thioether (positions not given here); not fully specified; UniProt P43683 49-68, looked up, variant E17A) [mersacidin variant produced by Szekat et al]
antibacterial activity (in words) (M. luteus): essentially inactive; also recorded: no antibacterial activity | fold greater MIC measured against M. luteus (M. luteus): about 1,000 fold

mersacidin L14I Dha16Dhb (CTFTLPGGGGVCTIT[Dhb]ECIC; thioether (positions not given here); not fully specified; UniProt P43683 49-68, looked up, variant L14I S16T) [mersacidin double variant]
MIC E. faecium 7131121 (E. faecium 7131121; Table 18, double variants): >64, >64 μg/ml | MIC E. faecalis 29212 (E. faecalis 29212; Table 18, double variants): >64, >64 μg/ml
